# Measurements taken from US11214803B2, “Modulators of YAP1 expression” (Ionis Pharmaceuticals, Inc., priority 2019, dated 2022).
# Strand notation (5' to 3'): a small letter for the sugar, then the base; units joined by * are phosphorothioate-linked, units joined directly phosphodiester-linked; [ ] holds rarer units or linkages, { } end groups; capitals alone tell only the bases. k = constrained ethyl (cEt); [5mC] = 5-methylcytosine; d = 2'-deoxy (DNA)
# Test system: Yap1 mRNA
# Experiment: Antisense inhibition of human Yap1 in A-431 cells by cEt gapmers, single dose (Example 4, RTS4814)
# Format: cell-based
# Conditions: Table 14; A-431 cells, 5,000 cells per well, free uptake, 2,000 nM, approximately 48 hours; RTS4814; normalized to RIBOGREEN; Yap1 mRNA relative to untreated control; * = targets amplicon region of primer probe set
# Outline: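 Values are % UTC: Yap1 mRNA by quantitative RT-PCR, normalized to RIBOGREEN total RNA. Cells were exposed ~48 h to 2,000 nM oligonucleotide without transfection. Oligonucleotides were 16-nucleoside gapmers with three cEt nucleosides per wing, ten-deoxy gap, P=S linkages throughout.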
row,Substance,YAP1 (% UTC)
1,1074304 (antisense k[5mC]*kT*kG*d[5mC]*d[5mC]*dG*dA*dA*dG*d[5mC]*dA*dG*dT*kT*k[5mC]*kT) [Compound 1074304],109
2,1076192 (k[5mC]*kT*kA*d[5mC]*dA*dA*d[5mC]*d[5mC]*dT*dG*dG*dA*d[5mC]*kT*kT*kT; antisense) [Compound 1076192],34
3,1075936 (k[5mC]*kT*kT*dA*dT*dA*dT*dT*d[5mC]*dT*d[5mC]*dT*d[5mC]*k[5mC]*kG*kA; antisense) [Compound 1075936],49
4,1076160 (kT*kT*kA*dT*dA*d[5mC]*dT*dA*dG*dT*dA*d[5mC]*dG*kG*k[5mC]*kA; antisense) [Compound 1076160],20

# Same assay, conditions: Table 15; A-431 cells, 5,000 cells per well, free uptake, 2,000 nM, approximately 48 hours; RTS4814; normalized to RIBOGREEN; Yap1 mRNA relative to untreated control; * = targets amplicon region of primer probe set
row,Substance,YAP1 (% UTC)
1,1074465 (kA*kA*kT*d[5mC]*dT*dA*dT*dA*dT*dT*dA*dG*dA*kG*kT*kA; antisense) [Compound 1074465],44
2,1074177 (antisense k[5mC]*k[5mC]*kT*d[5mC]*d[5mC]*d[5mC]*d[5mC]*d[5mC]*dG*dA*d[5mC]*dG*d[5mC]*kG*k[5mC]*kA) [Compound 1074177],69
3,1074561 (antisense kA*kA*kT*dT*d[5mC]*d[5mC]*dA*dA*dT*d[5mC]*dG*dA*dG*kA*k[5mC]*kT) [Compound 1074561],10
4,1074401 (antisense kT*k[5mC]*k[5mC]*dG*dG*dT*dG*d[5mC]*dA*dT*dG*dT*dG*kT*k[5mC]*kT) [Compound 1074401],18
5,1074945 (antisense k[5mC]*kA*kA*dA*dA*d[5mC]*d[5mC]*d[5mC]*dT*dT*dT*dG*dG*kT*k[5mC]*kT) [Compound 1074945],74
6,1075841 (kA*kT*kT*dT*dA*dG*dG*dT*dA*d[5mC]*dT*d[5mC]*dA*kG*kT*kA; antisense) [Compound 1075841],27
7,1074337 (antisense kG*kA*kG*dT*d[5mC]*d[5mC]*d[5mC]*dA*d[5mC]*d[5mC]*dA*dT*d[5mC]*k[5mC]*kT*kG) [Compound 1074337],10
8,1075137 (antisense kG*kA*kT*dT*dA*dA*dA*dT*dA*d[5mC]*dT*dG*dA*k[5mC]*k[5mC]*kA) [Compound 1075137],3

# Same assay, conditions: Table 16; A-431 cells, 5,000 cells per well, free uptake, 2,000 nM, approximately 48 hours; RTS4814; normalized to RIBOGREEN; Yap1 mRNA relative to untreated control cells
row,Substance,YAP1 (% UTC)
1,1075842 (kG*kT*kA*dT*dT*dT*dA*dG*dG*dT*dA*d[5mC]*dT*k[5mC]*kA*kG; antisense) [Compound 1075842],2
2,1076130 (k[5mC]*kT*kG*dG*dA*dA*dT*dA*dG*dT*dG*dG*dG*kT*kG*k[5mC]; antisense) [Compound 1076130],34
3,1074562 (antisense kG*kA*kA*dT*dT*d[5mC]*d[5mC]*dA*dA*dT*d[5mC]*dG*dA*kG*kA*k[5mC]) [Compound 1074562],30

# Same assay, conditions: Table 17; A-431 cells, 5,000 cells per well, free uptake, 2,000 nM, approximately 48 hours; RTS4814; normalized to RIBOGREEN; Yap1 mRNA relative to untreated control cells
row,Substance,YAP1 (% UTC)
1,1076259 (kA*kT*kT*dT*dA*dA*d[5mC]*dT*d[5mC]*d[5mC]*dT*dG*dA*kA*kG*kT; antisense) [Compound 1076259],61
2,1075619 (k[5mC]*kT*kT*dA*dG*dA*dT*dA*d[5mC]*dT*dA*d[5mC]*dT*kT*kT*kG; antisense) [Compound 1075619],54
3,1076547 (antisense kG*kA*k[5mC]*d[5mC]*dA*dA*d[5mC]*d[5mC]*dT*d[5mC]*d[5mC]*d[5mC]*dT*k[5mC]*kA*kG) [Compound 1076547],89
4,1075523 (kA*kA*kT*dT*dA*dA*dG*dG*dG*d[5mC]*d[5mC]*d[5mC]*dA*k[5mC]*kA*kA; antisense) [Compound 1075523],78
5,1075235 (antisense kA*kG*kT*dA*dA*dA*dT*dA*d[5mC]*dT*d[5mC]*dT*dA*kG*kT*kT) [Compound 1075235],38
6,1075331 (kG*kA*kT*dA*dA*dA*d[5mC]*dA*d[5mC]*dT*dG*d[5mC]*dA*kG*kA*kG; antisense) [Compound 1075331],33
7,1075683 (k[5mC]*kT*kG*dA*dA*dA*dA*dA*dG*dT*dT*dA*dT*kG*k[5mC]*k[5mC]; antisense) [Compound 1075683],56
8,1075875 (kA*k[5mC]*kT*dT*dA*dA*d[5mC]*dA*dA*d[5mC]*d[5mC]*d[5mC]*dT*kA*k[5mC]*kG; antisense) [Compound 1075875],72
9,1076195 (kA*kA*kT*dA*dA*d[5mC]*dA*dT*dG*dG*dT*dT*d[5mC]*kT*kG*kT; antisense) [Compound 1076195],20

# Same assay, conditions: Yap1 mRNA remaining as percent of untreated control; 3-10-3 cEt gapmers; A-431 cells; Table 36
row,Substance,YAP1 (% UTC)
1,1075830 (kG*kA*kT*dG*dA*dA*d[5mC]*dA*d[5mC]*dT*d[5mC]*dA*dA*kT*kA*kG; antisense) [compound 1075830],12
2,1074742 (kA*kA*kA*dG*dG*dA*d[5mC]*dT*d[5mC]*dT*dT*dA*dG*kG*kT*k[5mC]; antisense) [compound 1074742],25
3,1075670 (antisense kT*kA*kT*dA*dT*dA*dT*dG*dA*dT*dG*dG*dA*k[5mC]*kT*kG) [compound 1075670],39
4,1076310 (kA*k[5mC]*k[5mC]*d[5mC]*dT*dA*dT*dA*d[5mC]*dT*dT*dG*dA*kA*kT*kT; antisense) [compound 1076310],36
5,1076278 (kA*kA*kT*dA*dA*dG*dG*dA*d[5mC]*dA*dG*dG*dA*k[5mC]*k[5mC]*k[5mC]; antisense) [compound 1076278],29

# Same assay, conditions: Yap1 mRNA remaining as percent of untreated control; 3-10-3 cEt gapmers; A-431 cells; Table 37
row,Substance,YAP1 (% UTC)
1,1075767 (kT*kA*kT*dT*dA*d[5mC]*dA*d[5mC]*dA*dG*dG*d[5mC]*dA*kG*kG*k[5mC]; antisense) [compound 1075767],12
2,1074295 (antisense kT*kG*kG*dT*dT*dG*dG*dA*dG*dT*dT*dG*d[5mC]*kT*kG*k[5mC]) [compound 1074295],15
3,1076247 (kG*kA*k[5mC]*d[5mC]*dA*dA*dA*dA*d[5mC]*dA*dG*d[5mC]*dT*k[5mC]*kT*kT; antisense) [compound 1076247],11
4,1076087 (k[5mC]*kA*kA*dA*d[5mC]*dT*dA*dA*dT*dA*dG*dG*d[5mC]*k[5mC]*kA*kT; antisense) [compound 1076087],10
5,1074199 (antisense kG*k[5mC]*k[5mC]*dG*dG*dT*dT*dG*d[5mC]*d[5mC]*d[5mC]*dG*dG*kG*kT*k[5mC]) [compound 1074199],101
6,1074519 (kA*k[5mC]*kT*dA*d[5mC]*dT*dA*dG*dT*d[5mC]*dA*dT*dG*kT*kA*kT; antisense) [compound 1074519],45
7,1075063 (antisense kT*kA*k[5mC]*dG*dG*dA*dA*dG*dG*d[5mC]*d[5mC]*dA*dA*k[5mC]*kT*kG) [compound 1075063],16
8,1074903 (antisense k[5mC]*k[5mC]*kT*dA*dT*dT*dA*dA*d[5mC]*dT*dT*dT*dT*kG*kG*kG) [compound 1074903],87
9,1075991 (kA*kT*kA*dT*dA*dG*dG*dA*d[5mC]*d[5mC]*dA*d[5mC]*dG*kA*k[5mC]*kT; antisense) [compound 1075991],62
10,1075447 (antisense k[5mC]*kA*k[5mC]*dT*dA*dT*dA*dA*dA*dT*d[5mC]*d[5mC]*dT*k[5mC]*kA*kT) [compound 1075447],96
